Tests used:
Human CD13 = target: T1, Human CD13 (Homo sapiens, UniProt P15144); assay: CD13 inhibition assay (recombinant human aminopeptidase, L-leucine-p-nitroanilide); assay type: biochemical; conditions: mean ± SD, n ≥ 3; read-out: IC50 toward Human CD13
T1 construct: purchased R&D systems
Protocol: L-leucine-p-nitroanilide can be degraded by recombinant human aminopeptidase (R&D systems) or procine aminopeptidase (Sigma Chemical Co., St. Louis, MO, USA) and produce light absorption at 405 nm. The CD13 inhibitory activity of synthetic compounds was identified according to the degree of degradation of L-leucine-p-nitroanilide. L-leucine-p-nitroanilide was dissolved in DMSO and mixed with tested compounds in a transparent 96-well plate; then, aminopeptidase was added using phosphate solution (pH 7.2) as the assay buffer. After incubation at 37 °C for 30 min, the absorption was detected under a 405 nm wavelength via Tecan Spark multimode microplate.

HEK293 = assay: Cell proliferation analysis (MTT), normal cells; assay type: cell-based; conditions: Homo sapiens, non-malignant cell line, 48 h, read-out: Anti-proliferative activity IC50, HEK293
Protocol: (§1) All tumor cell lines in the current research were grown in a certain growth medium containing 10% FBS and 1% (v/v/v) penicillin–streptomycin–amphotericin at 37 °C in 5% CO2. Cells were seeded into 96-well plates at a density of 8 × 10^3 cells per well for tumor adherent cells and 2 × 10^4 cells per well for tumor-suspended cells in a final volume of 100 μL. After 12 h, 100 μL of various concentrations of compounds was added to each and incubated for 48 h. A 0.5% MTT solution was added per well before the intermixture was incubated for another 4 h, and formazan formed from MTT was extracted by adding […] of DMSO rocking for 15 min. Absorbance was measured at 570 nm using a Spark multimode microplate from Tecan. The IC50 values were calculated according to the inhibition ratios.

HL-7702 = assay: Cell proliferation analysis (MTT), normal cells; assay type: cell-based; conditions: Homo sapiens, L02, non-malignant cell line, 48 h, read-out: Anti-proliferative activity IC50, HL-7702
Protocol: as §1

MM1.S cells = assay: Cell cycle assay (PI flow cytometry); assay type: cell-based; conditions: MM1.S, 1, 2 and 4 µM, 48 h
Protocol: For the cell cycle assay, MM1.S cells were plated in 6-well plates with a density of 2.5 × 10^6 cells per well. A total of 12 h later, BC-05 (1, 2, and 4 μM), ixazomib (10 nM), or a vehicle (0.5% DMSO) was added, and the mixture was incubated for 48 h. Subsequently, cells were harvested, washed with cold PBS, and fixed in 75% cold ethanol at −20 °C overnight. After washing off the ethanol, fixed cells were treated with RNase A, dyed with propidium iodide solution (20 μg/mL), and incubated in the dark at 37 °C for 30 min. The final assay was analyzed using a Beckman flow cytometer.

[1] = tested on: P21WAF1/Cip1 in MM1.S cells; assay: Western blot analysis, P21; assay type: cell-based; conditions: 24 h
Protocol: MM1.S cells were seeded in 6-well plates with a density of 2.5 × 10^6 cells/well. Then, the cells were cultured with 1, 2, and 4 μM BC-05 and 10 nM ixazomib, respectively. After incubation for 24 h, the cells were collected, and total proteins were extracted via RIPA containing a 2% protease inhibitor cocktail. Cell lysates were centrifugated at 4 °C, 12,000 rpm for 15 min, and the supernatants were collected and quantified with BCA assay. After being boiled at 100 °C for 10 min in a NuPAGE lithium dodecyl sulfate (LDS) sample buffer (5X), equivalent samples were separated by 12% sodium dodecyl-sulfate polyacrylamide gel electrophoresis at 120 V, transferred to immune-blot poly(vinylidene fluoride) (PVDF) membranes (Merck Millipore, Burlington, MA, USA) at 4 °C and then blocked by 5% non-fat milk in TBST for an hour. The membranes were incubated overnight at 4 °C with certain primary antibodies, which were deliquates by an antibody dilution buffer (Boster Bio, Pleasanton, CA, USA) and then washed with TBST. After incubating with a horseradish (HRP)-conjugated secondary antibody for 1 h at room temperature, the membranes were washed five times with TBST for 5 min. The images were visualized on the Tanon-5200 Chemiluminescent Imaging System via luminol reaction. […]

[2] = tested on: H22 pulmonary metastasis tumor model; assay: In vivo H22 pulmonary metastasis model; design: species or system Kunming mice; conditions: p.o., BIW, 2 weeks, vehicle group 71.5
Protocol: The animal experiments were conducted under the guidelines of the “Regulations for the Administration of Affairs Concerning Experimental Animals” (revised 2017, State Council No. 676). H22 cells (3 × 10^6 cells/100 μL per mouse) were intravenously (i.v.) inoculated via the tail vein of Kunming mice aged 6 weeks on day 0. To ensure the growth of pulmonary metastasis before the drug treatment, the tumor was allowed to develop for 7 days. On day 8, the randomly grouped mice were treated with ixazomib (0.008 mmol/kg, p.o., BIW) or BC-05 (0.006, 0.008, and 0.01 mmol/kg, p.o., BIW) for consecutive 2 weeks. On day […], the mice were weighed and sacrificed, and the lungs were removed and weighed. After being fixed in the Bouin stationary solution for one day, the lung metastasized nodes of each mouse were numbered.

[3] = tested on: subcutaneous P3x63Ag8.653 tumor; assay: In vivo P3x63Ag8.653 tumor transplant model; design: species or system mice
Protocol: The animal experiments were conducted under the guidelines of the “Regulations for the Administration of Affairs Concerning Experimental Animals” (revised 2017, State Council No. 676). For the P3x63Ag8.653 tumor development, male mice were subcutaneously injected with 200 μL murine P3x63Ag8.653 cells with a density of 1 × 10^7/mL. On the eighth day after injection, the transplanted mice were randomized into treatment and control groups. The tested compounds were administrated orally at the prescribed dose biweekly for two weeks. After two weeks of administration, mice were executed, and the tumor tissues were dissected and weighed. T/C was calculated according to the following formula: T/C = the mean RTV of the treated group/the mean RTV of the control group, where RTV is the relative tumor volume = Vt/V0 (Vt, the tumor volume measured at the end of treatment; V0, the tumor volume measured at the beginning of treatment).

[4] = Acute toxicity experiment (single oral dose); assay type: in vivo; conditions: for Survival Animals: 7 days, n = 10
Description: The mouse mortality was monitored daily and recorded up to 7 days after treatment.

T1 sequence (P15144 whole entry): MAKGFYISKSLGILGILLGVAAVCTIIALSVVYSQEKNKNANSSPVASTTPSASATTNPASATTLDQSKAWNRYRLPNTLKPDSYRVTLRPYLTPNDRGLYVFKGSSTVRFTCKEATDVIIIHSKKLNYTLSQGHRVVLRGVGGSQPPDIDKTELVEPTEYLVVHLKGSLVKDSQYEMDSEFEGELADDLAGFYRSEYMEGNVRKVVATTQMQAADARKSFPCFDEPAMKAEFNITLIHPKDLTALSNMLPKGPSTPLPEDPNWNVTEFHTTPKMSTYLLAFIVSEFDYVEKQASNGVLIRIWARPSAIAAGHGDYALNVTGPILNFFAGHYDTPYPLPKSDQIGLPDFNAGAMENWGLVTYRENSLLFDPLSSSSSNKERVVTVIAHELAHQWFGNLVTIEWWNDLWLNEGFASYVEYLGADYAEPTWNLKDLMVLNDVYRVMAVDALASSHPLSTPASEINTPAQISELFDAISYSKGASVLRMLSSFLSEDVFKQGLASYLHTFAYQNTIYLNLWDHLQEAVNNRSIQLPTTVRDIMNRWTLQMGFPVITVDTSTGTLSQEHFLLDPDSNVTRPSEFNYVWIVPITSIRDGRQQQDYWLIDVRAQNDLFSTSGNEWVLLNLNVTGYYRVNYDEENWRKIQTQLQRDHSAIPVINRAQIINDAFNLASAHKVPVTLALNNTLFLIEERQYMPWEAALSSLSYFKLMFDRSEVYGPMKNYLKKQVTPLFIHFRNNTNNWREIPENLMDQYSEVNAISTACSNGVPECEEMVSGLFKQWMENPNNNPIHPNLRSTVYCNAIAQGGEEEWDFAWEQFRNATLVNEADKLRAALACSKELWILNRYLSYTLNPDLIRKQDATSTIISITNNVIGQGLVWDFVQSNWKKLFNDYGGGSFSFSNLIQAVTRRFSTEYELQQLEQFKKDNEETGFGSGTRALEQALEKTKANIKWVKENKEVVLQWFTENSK

SMILES: CC(C)C[C@H](NC(=O)[C@@H](O)[C@H](N)Cc1ccccc1)B1OC(=O)C(CC(=O)O)(CC(=O)O)O1 [BC-05, 2,2′-(2-((R)-1-((2S,3R)-3-amino-2-hydroxy-4-phenylbutanamido)-3-methylbutyl)-5-oxo-1,3,2-dioxaborolane-4,4-diyl)diacetic acid]
- IC50 (Human CD13): 0.13 ± 0.01 µM
- IC50 (HEK293): > 200 µM
- IC50 (HL-7702): > 200 µM
- cell cycle arrest (MM1.S cells): blocks MM1.S cells in the Sub-G1 phase
- P21WAF1/Cip1 level (Western blot) [1]: significantly upregulates
- number of H22 pulmonary nodes ([2]; 0.006 mmol/kg): 17.3
- number of H22 pulmonary nodes ([2]; 0.008 mmol/kg): 15.2
- number of H22 pulmonary nodes ([2]; 0.01 mmol/kg): 12.7
- T/C (relative tumor volume) ([3]; 0.008 mmol/kg oral, two weeks): 31.2%
- body weight loss and side effects ([3]; tumor-bearing mice, during oral administration): No obvious body weight loss and discernible side effects
- LD50 at 7 days ([4]; both sexes, Kunming, mouse, in vivo, single oral dose, healthy mice): 400 µmol/kg
- Survival Animals ([4]; single oral 0.27 mmol/kg): 10/10
- Survival Animals ([4]; single oral 0.36 mmol/kg): 6/10
- Survival Animals ([4]; single oral 0.49 mmol/kg): 4/10
- Survival Animals ([4]; single oral 0.65 mmol/kg): 1/10
- Survival Animals ([4]; single oral 0.86 mmol/kg): 0/10

From article PMC10489073 (Molecules, 2023)
